# Laboratory results reported in PMC12785583, “Coconut Milk-Derived Bioactive Peptides as Multifunctional Agents Against Hyperglycemia, Oxidative Stress, and Glycation: An Integrated Experimental and Computational Study” (International Journal of Molecular Sciences, 2025).
# Where two headings read alike, the source gives them in different places.
# Legend:
# [1] = ABTS radical scavenging assay; settings: for EC50: read-out: ABTS Radical Scavenging Assay EC50 (value in bracket) (converted)
# Protocol: Concerning the ABTS assay, the ABTS^•+ radical cation was generated. Subsequently, 0.05 mL of the test samples (peptides 1 and 2) at various concentrations was mixed with 4.00 mL of ABTS^•+ solution and kept in the dark at room temperature for two h. The absorbance was determined at 734 nm using a UV–Vis Spectrophotometer (UV-1280 Shimadzu, Germany). Ascorbic acid was used as the positive control, and samples without the ABTS radical solution served as blanks. The results were expressed as the effective concentration (EC50) values.
# [2] = superoxide radical scavenging assay (NBT); settings: for EC50: read-out: Superoxide Radical Scavenging Assay EC50 (value in bracket) (converted)
# Protocol: After 10 min of incubation at 25 °C in the dark, absorbance was recorded at 560 nm. Samples without NBT served as blanks, and ascorbic acid was used as the positive control. The results were expressed as the effective concentration (EC50) values.
# [3] = DPPH radical scavenging assay; settings: for EC50: read-out: DPPH Radical Scavenging Assay EC50 (value in bracket) (converted)
# Protocol: The antioxidant assays of the test compounds were conducted in vitro, following previous studies, using the standard DPPH, ABTS, and superoxide radical scavenging assays. Regarding the DPPH assay, 0.2 mL of the test samples (peptides 1 and 2) at various concentrations was added to 1.2 mL of a 40 μg/mL DPPH solution in methanol. The mixtures were shaken vigorously and incubated in the dark for 20 min, after which the reduction in DPPH absorption was measured at 517 nm. The samples without DPPH and with methanol served as blanks. Ascorbic acid was used as the positive control.
# [4] = methylglyoxal scavenging (Maillard reaction model, DNPH assay)
# Protocol: This preliminary assay was conducted to evaluate the methylglyoxal scavenging activity of peptides derived from coconut milk. The Maillard reaction was employed to assess the scavenging potential of peptides against methylglyoxal, using parameters as outlined in previous studies by Risum et al., Zhu et al., and Brings et al., with modifications. The reaction mixture (1 mL) consisted of both peptides at different concentrations, methylglyoxal (0.01 mM), phosphate buffer, and water. It was incubated at two temperatures: room temperature (followed by immediate termination) and 37 °C (for 2 h). Following the incubation time, the reaction was terminated by adding 10 μL of glacial acetic acid. Creatine was used as a positive control. The experiments were performed in triplicate.
# The scavenging potential of the peptides against methylglyoxal was determined using the DNPH assay. In brief, 25 μL of the sample was mixed with 975 μL of water and 1000 μL of DNPH reagent. The reaction mixture was shaken well and incubated at 37 °C for 10 min. Following incubation, the reaction was terminated by adding 1000 μL of 1.5 N NaOH, and the absorbance of the yellowish-orange complex was measured at 525 nm using […]: the MGO blank and the Creatine blank. Scavenging efficiency was calculated using Equations (4) and (5).(4) ACORR=Asample−Ablank (5) MGOscavenging=1−Acorr/AMGO,corr·100 where Asample is the absorbance of the reaction mixture containing methylglyoxal and the test compound (peptide or creatine), Ablank is the absorbance of the reagent blank (without methylglyoxal and without test compound), and AMGO,corr is the blank-corrected absorbance of the methylglyoxal blank (AMGO-Ablank). The creatine control was processed in the same way as the peptide samples.
# aldose reductase [5] = target: aldose reductase; set-up: method as in doi:10.3390/separations9090262; settings: cited from earlier work
# human aldose reductase = target: human aldose reductase; set-up: method as in doi:10.1016/j.fbio.2025.107775; settings: cited from earlier work
# [6] = cited from earlier work
# human erythrocytes = experiment: hemolytic assay; type: cell-based
# Protocol: The hemolytic potential of the lead peptides was determined following an established erythrocyte hemolysis protocol. In brief, 15 mL of venous blood was drawn from a healthy individual, centrifuged at 3000 rpm for 10 min, and the plasma was discarded. The residual pellet (RBCs) was washed 3 times with PBS (pH 7.4, 0.1 M), and the resultant pellet was resuspended in PBS in a 1:10 ratio. Subsequently, 0.9 mL of the RBC suspension was incubated with 0.1 mL of peptides at various concentrations, a negative control (100 μL PBS + 900 μL RBC suspension), and a positive control (100 μL of 0.5% Triton-X-100 + 900 μL of RBC suspension), and incubated at 37 °C for 24 h. Post incubation, all tubes were centrifuged at 3000 rpm for 10 min. 0.1 mL of the supernatant was then transferred to 96-well plates, and the absorbance of the supernatant was read at 540 nm. […] The corrected values were calculated as Acontrol=Apos−Aneg and Asample=Atest−Aneg where Apos , Aneg and Atest are the absorbance values of the positive control, negative control, and peptide-treated sample (given concentration), respectively.
# [7] = target: T1, porcine pancreatic α-amylase (Sus scrofa, UniProt P00690); experiment: α-amylase inhibition assay; type: biochemical
# T1 construct: purchased SRL (Sisco Research Laboratories)
# T1 sequence (P00690 16-511): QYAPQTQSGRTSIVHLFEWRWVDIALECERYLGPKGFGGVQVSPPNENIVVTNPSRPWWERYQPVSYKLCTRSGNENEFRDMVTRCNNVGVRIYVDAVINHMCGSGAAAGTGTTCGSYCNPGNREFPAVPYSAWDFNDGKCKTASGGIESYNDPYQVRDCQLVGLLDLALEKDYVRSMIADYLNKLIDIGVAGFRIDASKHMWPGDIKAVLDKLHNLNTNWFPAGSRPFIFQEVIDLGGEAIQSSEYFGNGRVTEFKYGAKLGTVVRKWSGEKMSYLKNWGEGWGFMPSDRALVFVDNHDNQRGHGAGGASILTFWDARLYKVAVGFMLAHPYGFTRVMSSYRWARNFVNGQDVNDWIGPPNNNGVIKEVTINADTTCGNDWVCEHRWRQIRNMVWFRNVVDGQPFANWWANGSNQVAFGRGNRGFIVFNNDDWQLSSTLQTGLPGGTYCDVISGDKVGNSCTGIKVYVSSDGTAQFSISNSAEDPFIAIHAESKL
# Protocol: The enzymatic reaction was initiated by adding the starch substrate and allowed to proceed for 15 min. The reaction was then terminated by adding the 3,5-dinitrosalicylic acid (DNSA) reagent, and the mixture was heated to boiling for 5 min. […] IC50 values were obtained from plots of percentage inhibition versus sample concentration.
# yeast α-glucosidase = experiment: α-glucosidase inhibition assay; type: biochemical, Saccharomyces cerevisiae; settings: for IC50: read-out: α-Glucosidase Inhibition IC50 (value in bracket) (converted)
# Protocol: The α-glucosidase inhibition assay was performed following the method described by Huligere et al.. […] In this assay, one unit of activity was defined as the amount of enzyme required to release one µmol of p-nitrophenol from pNPG per minute under the specified experimental conditions. […] The reaction was maintained at 37 °C for an additional 20 min. Enzyme activity was determined by measuring the absorbance of liberated p-nitrophenol at 405 nm using a microplate reader (Spectramax i3, Molecular Devices, LLC, San Jose, CA, USA). […] IC50 values were determined by relating the percentage inhibition of each sample to its concentration.
# aldose reductase [8] = target: T2, aldose reductase (Homo sapiens, UniProt P15121); experiment: aldose reductase inhibition assay; type: biochemical
# Protocol: The aldose reductase inhibition assay was performed according to the method described by Alharbi et al.. Briefly, a 1 mL reaction mixture comprised 0.87 mL of 100 mM Sodium phosphate buffer (pH 6.2), 0.05 mL of 3 mM NADPH, 0.01 mL of human aldose reductase (recombinant, 0.2 U/mL), with the enzyme’s activity being 0.2 IU/mL, and 0.02 mL of test compounds (designated as peptide 1 and peptide 2) at different concentrations. 0.05 mL of the substrate (DL-glyceraldehyde, five mM) was incubated in the reaction mixture for 3 min at 25 °C. Enzyme activity was determined by measuring the reduction in NADPH absorption at 340 nm over 10 min. […] Aldose reductase inhibitory activity was expressed as the percentage of inhibition.
# α-amylase = target: T3, α-amylase (Sus scrofa, UniProt P00690); experiment: enzyme inhibition kinetics (Lineweaver-Burk), α-amylase; type: biochemical, porcine; set-up: Vmax: unit not given here
# T3 construct: purchased SRL (Sisco Research Laboratories)
# T3 sequence (P00690 16-511): T1 sequence (P00690 16-511)
# From the text: (§1) Enzyme inhibition by coconut milk peptide 2 was further characterised for α-glucosidase, α-amylase and aldose reductase by steady-state kinetic analysis. […] In this context, v denotes the initial rate of product formation, whereas [S] denotes the concentration of the chromogenic or natural substrate used in each assay. Michaelis explained how v depends on [S] for each condition, as described by the Michaelis–Menten equation (Equation (2)):(2) v=VmaxS/Km+S Lineweaver–Burk double-reciprocal plots (Equation (3)) were then constructed by plotting 1/v versus 1/[S]:(3) 1/v=Km/Vmax·1/S+1/Vmax Michaelis–Menten parameters (Km and Vmax) and apparent inhibition constants (Ki) were obtained from these Lineweaver–Burk plots.
# aldose reductase [9] = target: T2, aldose reductase; experiment: enzyme inhibition kinetics (Lineweaver-Burk), aldose reductase; type: biochemical; set-up: Vmax: unit not given here
# From the text: as §1
# α-glucosidase = experiment: enzyme inhibition kinetics (Lineweaver-Burk), α-glucosidase; type: biochemical, Saccharomyces cerevisiae; set-up: Vmax: unit not given here
# From the text: as §1
# [10] = read-out: Methylglyoxal Scavenging EC50 at 37 °C, 2 h (value in bracket), 37 °C, 2 h
# [11] = room temperature, immediate termination, read-out: Methylglyoxal Scavenging EC50 at RT (value in bracket) (converted)
# [12] = mean ± SE, read-out: Ki (apparent inhibition constant) (converted)
compound,measurement,setting,value
"O=C1O[C@H]([C@@H](O)CO)C(O)=C1O [Ascorbic acid, reference compound]",ABTS Radical Scavenging Assay EC50,[1],22.74 ± 0.27 µg/mL
same,EC50,[1],129 µM
same,Superoxide Radical Scavenging Assay EC50,[2],57.71 ± 0.16 µg/mL
same,EC50,[2],328 µM
same,DPPH Radical Scavenging Assay EC50,[3],28.65 ± 0.17 µg/mL
same,EC50,[3],163 µM
"CN(CC(=O)O)C(=N)N [Creatine, reference compound]","Methylglyoxal Scavenging EC50 at 37 °C, 2 h","[4]; 37 °C, 2 h",230.05 ± 0.34 µg/mL
same,EC50,[4]; [10],1.75 mM
same,EC50,[4]; [11],1.75 mM
C[C@@H]1O[C@@H](OC[C@H]2O[C@@H](Oc3c(-c4ccc(O)c(O)c4)oc4cc(O)cc(O)c4c3=O)[C@H](O)[C@@H](O)[C@@H]2O)[C@H](O)[C@H](O)[C@H]1O [rutin],aldose reductase IC50,aldose reductase [5],7.86 ± 0.33 µg/mL
O=C(O)Cn1c(=O)n(Cc2ccc(Br)cc2F)c(=O)c2ccc(Cl)cc21 [zenarestat],human aldose reductase IC50,human aldose reductase,59.68 ± 0.47 µg/mL
GDMNP,superoxide anion radical scavenging EC50,[6],0.400 ± 0.008 mg/mL
"H-ADVFNPR-OH [Peptide 2, ADVFNPR]",Hemolytic Assay (HC50),human erythrocytes,231.53 ± 0.14 µg/mL
same,Hemolytic Assay (HC50) (value in bracket),"human erythrocytes; red cells of human, 24 h",283.08 µM
same,IC50,"[7]; mean ± SD, read-out: α-Amylase Inhibition IC50 (converted)",103 µM
same,IC50,[7]; read-out: α-Amylase Inhibition IC50 (value in bracket) (converted),103 µM
same,IC50,yeast α-glucosidase; listed as peptide 2,40.1 µM
same,α-Glucosidase Inhibition IC50,yeast α-glucosidase; mean ± SD,32.82 ± 0.17 µg/mL
same,IC50,yeast α-glucosidase,40.1 µM
same,ABTS Radical Scavenging Assay EC50,[1],17.89 ± 0.20 µg/mL
same,EC50,[1],21.9 µM
same,IC50,"aldose reductase [8]; mean ± SD, read-out: Aldose Reductase Inhibition IC50 (converted)",24.8 µM
same,IC50,aldose reductase [8]; read-out: Aldose Reductase Inhibition IC50 (value in bracket) (converted),24.8 µM
same,Vmax,α-amylase; IC20—33.55 µg,27.75
same,Vmax,α-amylase; IC40—67.10 µg,26.26
same,Vmax,α-amylase; IC60—100.60 µg,27.50
same,Mode of inhibition,α-amylase; from Lineweaver–Burk plot,Competitive
same,Ki,α-amylase; [12],1640 nM
same,Vmax (essentially constant),α-amylase; over IC20–IC60,~27 µM/min
same,Superoxide Radical Scavenging Assay EC50,[2],42.45 ± 0.30 µg/mL
same,EC50,[2],51.9 µM
same,DPPH Radical Scavenging Assay EC50,[3],22.14 ± 0.12 µg/mL
same,EC50,[3],27.1 µM
same,Vmax,aldose reductase [9]; IC20—8.12 µg,46.64
same,Vmax,aldose reductase [9]; IC40—16.23 µg,46.02
same,Vmax,aldose reductase [9]; IC60—24.35 µg,45.55
same,Mode of inhibition,aldose reductase [9]; from Lineweaver–Burk plot,Competitive
same,Ki,aldose reductase [9]; [12],954 nM
same,Vmax (essentially constant),aldose reductase [9]; over IC20–IC60,~46 µM/min
same,Vmax,α-glucosidase; IC20—13.13 µg,14.87
same,Vmax,α-glucosidase; IC40—26.26 µg,14.68
same,Vmax,α-glucosidase; IC60—39.39 µg,14.50
same,Mode of inhibition,α-glucosidase; from Lineweaver–Burk plot,Competitive
same,Ki (apparent inhibition constant),α-glucosidase; mean ± SE,0.95 ± 0.09 µg
same,Vmax (essentially constant),α-glucosidase; over IC20–IC60,~15 µM/min
same,"Methylglyoxal Scavenging EC50 at 37 °C, 2 h","[4]; 37 °C, 2 h",182.17 ± 0.23 µg/mL
same,EC50,[4]; [10],0.223 mM
same,Methylglyoxal Scavenging EC50 at RT,"[4]; room temperature, immediate termination",208.10 ± 0.65 µg/mL
same,EC50,[4]; [11],0.254 mM
LLLRW,superoxide anion radical scavenging EC50,[6],0.430 ± 0.012 mg/mL
